Where a name gives a salt, the structure may show the parent alone. Read-outs that look alike come from different tables or passages of the source.
What was measured:
HCMV = assay: Anti-HCMV cytopathogenicity test; assay type: cell-based, human cytomegalovirus; details: read-out: HCMV EC50
Description: (§1) Anti-HCMV (Anti-Human Cytomegalovirus) Cytopathogenicity Tests The test compounds are employed as 50 millimolar (mM) solutions in dimethyl sulphoxide (DMSO). Ganciclovir®, Foscarnet® and Cidofovir® are used as reference compounds. After addition of in each case 2 μl of the 50, 5, 0.5 and 0.05 mM DMSO stock solutions to 98 μl portions of cell culture medium in row […] for duplicate determinations, 1:2 dilutions are carried out with 50 μl portions of medium up to row 11 of the 96-well plate. The wells in rows 1 and 12 each contain 50 μl of medium. In 150 μl of a suspension of 1×10^4 cells (human prepuce fibroblasts [NHDF]) are pipetted into each of the wells (row 1=cell control) and, in rows 2-12, a mixture of HCMV-infected and uninfected NHDF cells (M.O.I.=0.001-0.002), i.e. 1-2 infected cells per 1000 uninfected cells. Row 12 (without substance) serves as virus control. The final test concentrations are 250-0.0005 μM. The plates are incubated at 37° C./5% CO2 for 6 days, i.e. until all the cells are infected in the virus controls (100% cytopathogenic effect [CPE]). The wells are then fixed and stained by adding a mixture of formalin and Giemsa's dye (30 minutes), washed with double-distilled water and dried in a drying oven at 50° C. The plates are then assessed visually using an overhead microscope (Plaque Multiplier from Technomara). The following data can be acquired from the test plates: • CC50 (NHDF)=substance concentration in μM at which no visible cytostatic effects on the cells are evident by comparison with the untreated cell control; • EC50 (HCMV)=substance concentration in μM which inhibits the CPE (cytopathic effect) by 50% compared with the untreated virus control; • SI (selectivity index)=CC50 (NHDF)/EC50 (HCMV).

[1] = Anti-HCMV cytopathogenicity test: cytostatic effects on NHDF cells; assay type: cell-based; details: NHDF cells (human prepuce fibroblasts), 6 days incubation, visual assessment, concentration at which no visible cytostatic effects are evident vs untreated cell control
Description: as §1

[2] = Human betaherpesvirus 5, 144 h, HCMV-infected NHDF cells, M.O.I. 0.001-0.002, 6 days, 50% inhibition of CPE vs untreated virus control

SMILES	EC50 (HCMV; [2])	CC50 at 6 days [1]	EC50 (HCMV; Human betaherpesvirus 5, NHDF, 144 h)
Cc1cc(N2CCN(C3=Nc4ccccc4C(CC(=O)O)N3c3cccc(C(F)(F)F)c3)CC2)ccc1F (stereo not shown) [Example 1, {2-[4-(4-Fluoro-3-methylphenyl)-1-piperazinyl]-3-[3-(trifluoromethyl)phenyl]-3,4-dihydro-4-quinazolinyl}acetic acid]	0.027 µM	17 µM	
O=C(O)CC1c2ccccc2N=C(N2CCN(c3ccc(F)cc3)CC2)N1c1cc(C(F)(F)F)ccc1F (stereo not shown) [Example 2, {2-[4-(4-Fluorophenyl)-1-piperazinyl]-3-[2-fluoro-5-(trifluoromethyl)phenyl]-3,4-dihydro-4-quinazolinyl}acetic acid hydrochloride]		39 µM	0.06 µM
COc1cccc(N2CCN(C3=Nc4ccccc4C(CC(=O)O)N3c3cccc(C#N)c3)CC2)c1 (stereo not shown) [Example 23]	0.76 µM	188 µM	
COc1ccc(C(F)(F)F)cc1N1C(N2CCN(c3cccc(Cl)c3)CC2)=Nc2ccccc2C1CC(=O)O (stereo not shown) [Example 26, {2-[4-(3-Chlorophenyl)-1-piperazinyl]-3-[2-methoxy-5-(trifluoromethyl)phenyl]-3,4-dihydro-4-quinazolinyl)acetic acid]	0.019 µM	31 µM	
COc1ccc(C(F)(F)F)cc1N1C(N2CCN(c3cccc(C)c3)CC2)=Nc2ccccc2C1CC(=O)O (stereo not shown) [Example 27, {2-[4-(3-Methylphenyl)-1-piperazinyl]-3-[2-methoxy-5-(trifluoromethyl)phenyl]-3,4-dihydro-4-quinazolinyl}acetic acid]	0.13 µM	188 µM	
COc1ccc(C)cc1N1C(N2CCN(c3cccc(C)c3)CC2)=Nc2ccccc2C1CC(=O)O (stereo not shown) [Example 30, {2-[4-(3-Methylpheny)-1-piperazinyl]-3-[2-methoxy-5-methylphenyl]-3,4-dihydro-4-quinazolinyl}acetic acid]	0.25 µM	250 µM	

More lines, main results first:

EC50 (HCMV; [2])	SMILES	CC50 at 6 days [1]	EC50 (HCMV; Human betaherpesvirus 5, NHDF, 144 h)
0.4 µM	Cc1cc(Cl)ccc1N1C(N2CCN(c3cccc(Cl)c3)CC2)=Nc2ccccc2C1CC(=O)O (stereo not shown) [Example 6, {2-[4-(3-Chlorophenyl)-1-piperazinyl]-3-[4-chloro-2-methylphenyl]-3,4-dihydro-4-quinazolinyl}acetic acid]	22 µM	
0.4 µM	O=C(O)CC1c2ccccc2N=C(N2CCN(c3cccc(Cl)c3)CC2)N1c1ccc(F)c(Cl)c1 (stereo not shown) [Example 19]	24 µM	
0.025 µM	COc1cccc(N2CCN(C3=Nc4ccccc4C(CC(=O)O)N3c3cc(Cl)ccc3OC)CC2)c1 (stereo not shown) [Example 28, {2-[4-(3-Methoxyphenyl)-1-piperazinyl]-3-[2-methoxy-5-chlorophenyl]-3,4-dihydro-4-quinazolinyl]acetic acid]	63 µM	
0.07 µM	COc1ccc(Cl)cc1N1C(N2CCN(c3ccc(F)cc3)CC2)=Nc2ccccc2C1CC(=O)O (stereo not shown) [Example 29, {2-[4-(4-Fluorophenyl)-1-piperazinyl]-3-[2-methoxy-5-chlorophenyl]-3,4-dihydro-4-quinazolinyl}acetic acid]	125 µM	
0.14 µM	COc1ccc(C)cc1N1C(N2CCN(c3cccc(Cl)c3)CC2)=Nc2ccccc2C1CC(=O)O (stereo not shown) [Example 31, {2-[4-(3-Chlorophenyl)-1-piperazinyl]-3-[2-methoxy-5-methylphenyl]-3,4-dihydro-4-quinazolinyl}acetic acid]	63 µM	
